From ChEMBL document CHEMBL4422658, “Calixarene-based phosphinic acids as inhibitors of protein tyrosine phosphatases” (Bioorg Med Chem Lett, 2019)

Columns and labels:
[1] = target: T1, Tyrosine-protein phosphatase non-receptor type 4 (Homo sapiens, UniProt P29074); test: Inhibition of recombinant human N-terminal GST-tagged MEG1 catalytic domain (637 to 926 residues) expressed in Escherichia coli using […] as substrate preincubated with substrate for 5 mins followed by enzyme addition
T1 sequence (P29074 whole entry): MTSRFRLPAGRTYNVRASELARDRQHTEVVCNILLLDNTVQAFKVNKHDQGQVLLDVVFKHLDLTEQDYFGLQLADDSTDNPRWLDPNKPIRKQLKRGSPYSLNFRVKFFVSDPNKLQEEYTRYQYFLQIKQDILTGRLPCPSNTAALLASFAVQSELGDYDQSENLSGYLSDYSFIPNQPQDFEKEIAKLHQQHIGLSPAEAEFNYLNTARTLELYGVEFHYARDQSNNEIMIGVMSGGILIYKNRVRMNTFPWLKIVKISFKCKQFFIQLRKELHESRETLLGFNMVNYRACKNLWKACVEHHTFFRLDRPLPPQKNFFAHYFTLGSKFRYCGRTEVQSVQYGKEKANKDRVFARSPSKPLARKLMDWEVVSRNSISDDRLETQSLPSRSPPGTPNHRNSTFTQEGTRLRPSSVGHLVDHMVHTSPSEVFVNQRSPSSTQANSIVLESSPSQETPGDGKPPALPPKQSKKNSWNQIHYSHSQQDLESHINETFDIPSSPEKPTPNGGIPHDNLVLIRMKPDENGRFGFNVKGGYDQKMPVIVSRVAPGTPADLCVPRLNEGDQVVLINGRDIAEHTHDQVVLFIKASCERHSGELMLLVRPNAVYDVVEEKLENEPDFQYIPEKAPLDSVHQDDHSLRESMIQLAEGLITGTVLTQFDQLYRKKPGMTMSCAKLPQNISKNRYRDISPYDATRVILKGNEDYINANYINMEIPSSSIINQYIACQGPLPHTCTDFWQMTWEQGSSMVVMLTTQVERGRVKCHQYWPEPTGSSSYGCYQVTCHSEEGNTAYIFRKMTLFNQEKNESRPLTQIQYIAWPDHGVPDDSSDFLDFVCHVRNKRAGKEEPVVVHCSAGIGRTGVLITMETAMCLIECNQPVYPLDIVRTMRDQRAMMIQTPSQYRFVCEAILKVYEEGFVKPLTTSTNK

[2] = target: T2, Tyrosine-protein phosphatase non-receptor type 11 (Homo sapiens, UniProt Q06124); test: Inhibition of recombinant human SHP2 expressed in Escherichia coli using […] as substrate preincubated with substrate for 5 mins followed by enzyme addition
T2 sequence (Q06124 whole entry): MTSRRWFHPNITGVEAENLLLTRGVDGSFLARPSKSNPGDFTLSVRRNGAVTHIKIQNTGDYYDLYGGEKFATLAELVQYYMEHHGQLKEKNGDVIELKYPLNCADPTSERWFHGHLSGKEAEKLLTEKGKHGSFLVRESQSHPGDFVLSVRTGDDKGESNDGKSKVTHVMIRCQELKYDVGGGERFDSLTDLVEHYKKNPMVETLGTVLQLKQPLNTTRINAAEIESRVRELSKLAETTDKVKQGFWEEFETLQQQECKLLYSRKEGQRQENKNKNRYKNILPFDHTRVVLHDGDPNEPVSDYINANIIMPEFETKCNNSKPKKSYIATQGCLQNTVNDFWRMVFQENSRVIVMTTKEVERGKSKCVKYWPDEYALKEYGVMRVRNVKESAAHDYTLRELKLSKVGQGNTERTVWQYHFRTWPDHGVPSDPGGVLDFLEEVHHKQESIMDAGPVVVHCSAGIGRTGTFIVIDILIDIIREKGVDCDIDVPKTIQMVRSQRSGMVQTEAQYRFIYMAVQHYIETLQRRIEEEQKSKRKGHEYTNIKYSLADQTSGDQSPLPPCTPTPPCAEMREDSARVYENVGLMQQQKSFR

[3] = target: T3, Tyrosine-protein phosphatase non-receptor type 1 (Homo sapiens, UniProt P18031); test: Inhibition of recombinant human PTP1B expressed in Escherichia coli using […] as substrate preincubated with substrate for 5 mins followed by enzyme addition
T3 sequence (P18031 whole entry): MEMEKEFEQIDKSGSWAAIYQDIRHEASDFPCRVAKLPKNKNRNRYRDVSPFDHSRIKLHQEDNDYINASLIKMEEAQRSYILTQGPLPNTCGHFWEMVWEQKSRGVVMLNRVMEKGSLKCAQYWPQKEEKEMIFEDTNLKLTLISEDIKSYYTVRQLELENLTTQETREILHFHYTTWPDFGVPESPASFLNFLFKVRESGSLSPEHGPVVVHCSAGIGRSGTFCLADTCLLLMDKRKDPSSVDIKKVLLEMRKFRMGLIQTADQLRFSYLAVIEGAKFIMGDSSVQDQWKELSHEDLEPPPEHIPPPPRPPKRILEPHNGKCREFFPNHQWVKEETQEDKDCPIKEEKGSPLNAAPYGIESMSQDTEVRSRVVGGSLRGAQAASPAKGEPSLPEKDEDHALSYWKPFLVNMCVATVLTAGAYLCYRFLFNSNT

[4] = target: T4, Tyrosine-protein phosphatase non-receptor type 9 (Homo sapiens, UniProt P43378); test: Inhibition of recombinant human N-terminal GST-tagged MEG2 catalytic domain (285 to 593 residues) expressed in Escherichia coli using […] as substrate preincubated with substrate for 5 mins followed by enzyme addition
T4 sequence (P43378 whole entry): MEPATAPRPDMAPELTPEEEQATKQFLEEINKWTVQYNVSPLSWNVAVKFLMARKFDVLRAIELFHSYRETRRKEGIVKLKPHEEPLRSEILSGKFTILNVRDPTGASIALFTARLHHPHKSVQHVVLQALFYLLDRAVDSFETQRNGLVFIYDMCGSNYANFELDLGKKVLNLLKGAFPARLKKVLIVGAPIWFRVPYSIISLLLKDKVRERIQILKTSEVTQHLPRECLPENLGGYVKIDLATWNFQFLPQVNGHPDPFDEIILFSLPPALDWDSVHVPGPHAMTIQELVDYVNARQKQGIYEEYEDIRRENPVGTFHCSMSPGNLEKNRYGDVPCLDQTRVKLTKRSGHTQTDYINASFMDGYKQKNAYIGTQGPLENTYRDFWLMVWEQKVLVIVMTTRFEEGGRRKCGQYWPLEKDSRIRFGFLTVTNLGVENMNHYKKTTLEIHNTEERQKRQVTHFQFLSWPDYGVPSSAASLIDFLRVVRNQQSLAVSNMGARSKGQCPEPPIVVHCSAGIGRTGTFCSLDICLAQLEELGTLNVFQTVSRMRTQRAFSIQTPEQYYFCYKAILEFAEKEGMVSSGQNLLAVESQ

[5] = target: T5, Tyrosine-protein phosphatase non-receptor type 2 (Homo sapiens, UniProt P17706); test: Inhibition of recombinant human N-terminal GST-tagged TCPTP catalytic domain (2 to 315 residues) expressed in Escherichia coli using […] as substrate preincubated with substrate for 5 mins followed by enzyme addition
T5 sequence (P17706 whole entry): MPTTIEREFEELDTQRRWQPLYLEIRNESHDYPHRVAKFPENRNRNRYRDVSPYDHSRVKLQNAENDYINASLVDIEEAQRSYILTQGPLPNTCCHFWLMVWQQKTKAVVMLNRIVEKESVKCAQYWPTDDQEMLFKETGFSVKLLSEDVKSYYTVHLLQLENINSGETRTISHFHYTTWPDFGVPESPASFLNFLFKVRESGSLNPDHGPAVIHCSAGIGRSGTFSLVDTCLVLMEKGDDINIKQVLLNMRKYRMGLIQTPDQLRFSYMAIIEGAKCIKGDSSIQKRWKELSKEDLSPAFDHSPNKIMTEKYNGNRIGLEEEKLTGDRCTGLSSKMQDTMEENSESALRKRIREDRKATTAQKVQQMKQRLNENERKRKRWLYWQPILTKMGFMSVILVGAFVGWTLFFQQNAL

[6] = target: T3, Tyrosine-protein phosphatase non-receptor type 1; test: Competitive inhibition of recombinant human PTP1B expressed in Escherichia coli using varying levels of […] as substrate by Lineweaver-burk plot analysis
[7] = species: Homo sapiens; test: Selectivity ratio of IC50 for recombinant human N-terminal GST-tagged MEG2 catalytic domain (285 to 593 residues) expressed in Escherichia coli to IC50 for recombinant human PTP1B expressed in Escherichia coli
[8] = species: Homo sapiens; test: Selectivity ratio of IC50 for recombinant human N-terminal GST-tagged TCPTP catalytic domain (2 to 315 residues) expressed in Escherichia coli to IC50 for recombinant human PTP1B expressed in Escherichia coli
[9] = species: Homo sapiens; test: Selectivity ratio of IC50 for recombinant human SHP2 expressed in Escherichia coli to IC50 for recombinant human PTP1B expressed in Escherichia coli
[10] = species: Homo sapiens; test: Selectivity ratio of IC50 for recombinant human N-terminal GST-tagged MEG1 catalytic domain (637 to 926 residues) expressed in Escherichia coli to IC50 for recombinant human PTP1B expressed in Escherichia coli

IC50 [1]	IC50 [2]	IC50 [3]	IC50 [4]	IC50 [5]	Ki [6]	Ratio IC50 [7]	Ratio IC50 [8]	Ratio IC50 [9]	Ratio IC50 [10]	SMILES
0.18 µM	0.5 µM	79 nM	410 nM	0.28 µM	32 nM					O=P(O)(Cc1cc2c(O)c(c1)S(=O)(=O)c1cc(CP(=O)(O)c3ccccc3)cc(c1O)S(=O)(=O)c1cc(CP(=O)(O)c3ccccc3)cc(c1O)S(=O)(=O)c1cc(CP(=O)(O)c3ccccc3)cc(c1O)S2(=O)=O)c1ccccc1
30 µM	4.6 µM	2800 nM	2400 nM	20 µM						O=P(O)(Cc1cc2c(O)c(c1)Cc1cc(CP(=O)(O)c3ccccc3)cc(c1O)Cc1cc(CP(=O)(O)c3ccccc3)cc(c1O)Cc1cc(CP(=O)(O)c3ccccc3)cc(c1O)C2)c1ccccc1
5.4 µM	3.7 µM	380 nM	5900 nM	6.8 µM	140 nM	10 to 18	15	10 to 18	10 to 18	O=P(O)(Cc1cc2c(O)c(c1)Sc1cc(CP(=O)(O)c3ccccc3)cc(c1O)Sc1cc(CP(=O)(O)c3ccccc3)cc(c1O)Sc1cc(CP(=O)(O)c3ccccc3)cc(c1O)S2)c1ccccc1
							15			CCOP(=O)(O)Cc1cc2c(O)c(c1)Sc1cc(CP(=O)(O)OCC)cc(c1O)Sc1cc(CP(=O)(O)OCC)cc(c1O)Sc1cc(CP(=O)(O)OCC)cc(c1O)S2
